Results reported in PubChem BioAssay AID1645862 (Buhrlage Lab, Dana-Farber Cancer Institute and Novartis …, 2021).
Activity calls are given as the source filed them. No rule for the calls is given here.

Biological target: Ubiquitin carboxyl-terminal hydrolase 8 (Homo sapiens) (UniProt P40818)
Assay: Ubiquitin-specific protease 8 inhibitors, concentration-effect, biochemical, validation of initial actives (AID 1645862);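 also: potency reflects inhibition of USP8 cleavage of a ubiquitin rhodamine substrate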
Conditions: recombinant USP8 deubiquitinase activity assay

Sequence of Ubiquitin carboxyl-terminal hydrolase 8 (Homo sapiens) (P40818 whole entry, looked up): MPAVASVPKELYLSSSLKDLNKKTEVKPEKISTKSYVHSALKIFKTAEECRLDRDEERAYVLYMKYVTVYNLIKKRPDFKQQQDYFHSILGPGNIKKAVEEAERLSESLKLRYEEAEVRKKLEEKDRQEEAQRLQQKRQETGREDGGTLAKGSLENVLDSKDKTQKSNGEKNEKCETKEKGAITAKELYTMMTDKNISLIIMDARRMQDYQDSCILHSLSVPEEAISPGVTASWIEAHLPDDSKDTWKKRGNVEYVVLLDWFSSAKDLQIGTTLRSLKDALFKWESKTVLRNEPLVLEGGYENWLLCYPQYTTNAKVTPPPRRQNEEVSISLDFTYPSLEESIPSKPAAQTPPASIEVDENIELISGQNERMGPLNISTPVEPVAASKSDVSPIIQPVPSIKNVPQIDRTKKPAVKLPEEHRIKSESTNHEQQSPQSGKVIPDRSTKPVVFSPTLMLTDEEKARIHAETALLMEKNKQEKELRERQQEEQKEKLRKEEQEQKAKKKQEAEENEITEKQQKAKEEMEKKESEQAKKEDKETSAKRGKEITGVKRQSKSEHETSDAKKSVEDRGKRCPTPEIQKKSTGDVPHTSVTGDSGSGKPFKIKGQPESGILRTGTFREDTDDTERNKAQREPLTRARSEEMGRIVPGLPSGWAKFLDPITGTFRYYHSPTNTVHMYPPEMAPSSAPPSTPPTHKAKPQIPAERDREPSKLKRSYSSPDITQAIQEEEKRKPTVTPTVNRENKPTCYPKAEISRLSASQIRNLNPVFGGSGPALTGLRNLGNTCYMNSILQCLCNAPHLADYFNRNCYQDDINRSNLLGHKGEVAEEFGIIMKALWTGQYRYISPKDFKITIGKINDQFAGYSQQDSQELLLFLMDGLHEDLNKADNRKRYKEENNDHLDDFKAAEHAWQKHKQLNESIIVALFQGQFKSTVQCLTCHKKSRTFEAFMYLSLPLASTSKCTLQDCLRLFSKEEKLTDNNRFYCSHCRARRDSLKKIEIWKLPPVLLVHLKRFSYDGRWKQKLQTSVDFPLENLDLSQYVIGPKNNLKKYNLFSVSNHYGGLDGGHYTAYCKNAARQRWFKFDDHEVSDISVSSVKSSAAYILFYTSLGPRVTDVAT

Row | IC50 | SMILES
1 | > 40 µM (inactive) | Cc1ccc(Nc2nc(O)c(CC(=O)Nc3ccccc3C)s2)cc1C
2 | > 40 µM (inactive) | O=C(NCCc1nc2ccccc2n1CCOc1ccccc1Cl)C1CCCCC1
3 | > 40 µM (inactive) | COc1ccc(-c2cc3nc([C@H](C)NC(=O)Cc4cc(F)ccc4F)nn3cn2)cc1
4 | 21.3 µM | Cc1ccc(NC(=O)Cc2nnc3cc(-c4nc(C)no4)ccn23)cc1
5 | > 40 µM (inactive) | CN(C)c1cccc(-c2nnc(SCC(=O)Nc3ccc(F)cc3)n2-c2ccccc2)c1
6 | > 40 µM (inactive) | O=C1CC(C(=O)Nc2ccc3c(c2)OCO3)n2nc(SCc3ccccc3)nc2N1 (stereo not given)
7 | > 40 µM (inactive) | CCc1ccc(-n2c(C)cc(/C=C3\C(=N)N4N=CSC4=NC3=O)c2C)cc1
8 | 29.1 µM | O=C(COc1ccccc1-c1nnc(-c2ccccc2)o1)NCCc1ccco1
9 | > 40 µM (inactive) | Cc1nc2cc(-c3noc(-c4cccc5[nH]ccc45)n3)ccc2o1
10 | > 40 µM (inactive) | O=C(Nc1cccc(Cl)c1)c1ncn2c1CNS(=O)(=O)c1ccccc1-2
11 | 29.4 µM | Cn1c2ccccc2c(=O)c2c(=O)n(Cc3ccco3)c(-c3ccccc3F)nc21
12 | > 40 µM (inactive) | CCCCOc1ccc(-c2cc3n(c(=N)c2C#N)CCc2cc4c(cc2-3)OCCCO4)cc1OC
13 | > 40 µM (inactive) | COCCCN1CCS(=O)(=O)c2c(Cl)c(F)nc(Oc3ccc(C#N)cc3)c21
14 | 0.514 µM | CCCCCCCCC/C=C/C(=O)CCc1c(O)c(C=O)c2c(c1O)C(=O)OC2O (stereo not given)
15 | > 40 µM (inactive) | Cc1cccc(Cl)c1NC(=O)Nc1ccc(NC(=O)c2ccccc2O)cc1
16 | > 40 µM (inactive) | COc1ccc(OC)c(NC(=O)Cn2c(=O)n(C3CCCCC3)c(=O)c3ccccc32)c1
17 | 9.44 µM | COc1ccc(C(=O)NC(Cc2ccccc2)c2nc3ccccc3[nH]2)c(OC)c1 (stereo not given)
18 | > 40 µM (inactive) | Cc1ccc(-n2nc(C)c3c2NC(=O)CC3C(=O)c2cc3ccccc3o2)cc1 (stereo not given)
19 | 2.07 µM | O=c1cc(-c2ccc(O)c(O)c2)oc2cc(O)cc(O)c12
20 | > 40 µM (inactive) | CCCc1nnc(C(=O)Nc2ccc(C(=O)NC(C)c3ccccc3)cc2)s1 (stereo not given)
21 | > 40 µM (inactive) | O=C(Cn1c(-c2ccccc2)ncc(C(=O)NC2CC2)c1=O)Nc1ccccc1
22 | > 40 µM (inactive) | Cc1ccc(CNCc2cc3c(-c4ccc(F)cc4)nn(-c4ccccc4)c3[nH]c2=O)cc1
23 | > 40 µM (inactive) | COc1ccc(-n2c(=O)c3ccc(C(=O)NCCc4ccccc4)cc3n(CC(=O)NCCC3=CCCCC3)c2=O)cc1

Row | IC50 | SMILES
24 | > 40 µM (inactive) | O=C(/C=C/c1ccc2c(c1)OCO2)Nc1nc2n(n1)C(c1ccccc1)CC(=O)N2 (stereo not given)
25 | > 40 µM (inactive) | COCCCN1CCS(=O)(=O)c2c(Cl)c(F)nc(Oc3ccccc3F)c21
26 | > 40 µM (inactive) | CCc1ccc(OCCn2c(CCNC(=O)C3CCCCC3)nc3ccccc32)cc1
27 | > 40 µM (inactive) | O=C(CCCc1nnc2c(=O)n(-c3cccc(F)c3)ccn12)NCc1ccc(Cl)cc1
28 | 16 µM | COc1cc(-c2ccccc2)c(O)c(O)c1-c1ccccc1
29 | > 40 µM (inactive) | O=C(c1cnccn1)N1CC[C@@H]2CNS(=O)(=O)[C@@H]2CC1
30 | > 40 µM (inactive) | N#Cc1cn2c(nc1-c1ccc(Cl)cc1)nc1ccccc12
31 | > 40 µM (inactive) | O=C(NCc1ccccc1Cl)C1CCN(c2ccc(-c3ccccc3)nn2)CC1
32 | > 40 µM (inactive) | COC(=O)c1ccc2c(=O)n(CCCCCC(=O)NCCc3ccc(OC)c(OC)c3)c(=O)[nH]c2c1
33 | > 40 µM (inactive) | O=S(=O)(Nc1cccc(O)c1)c1ccc2oc3ccc(S(=O)(=O)Nc4cccc(O)c4)cc3c2c1
34 | > 40 µM (inactive) | Cc1cc(NC(=O)CN2CCCN(S(=O)(=O)c3ccc(F)cc3)CC2)ccc1Br
35 | > 40 µM (inactive) | Cc1ccccc1-c1noc(-c2ccccc2OCC(=O)NC(C)C)n1
36 | > 40 µM (inactive) | Cc1ccc(C(=O)O)cc1NC(=O)C(Sc1cccc(NC(=O)c2cccc(Cl)c2)c1)c1ccccc1 (stereo not given)
37 | 24.2 µM | COc1ccc(Cl)cc1NC(=O)COC(=O)c1cc2ccccc2oc1=O
38 | > 40 µM (inactive) | O=C(Nc1ccccc1-c1nc(-c2ccccn2)no1)c1cc(Cl)ccc1Cl
39 | 0.972 µM | COc1cc2cc3c(c(O)c2c(O)c1-c1c(OC)cc2cc4c(c(O)c2c1O)C(=O)OC1CC(C)OC41)C(=O)OC1CC(C)OC31 (stereo not given)
40 | > 40 µM (inactive) | Cc1cccc(C(=O)OCC(=O)Nc2ccc3[nH]c(=O)[nH]c3c2)c1C
41 | > 40 µM (inactive) | CCOc1ccc(C(=O)CCC(=O)Nc2cccc(S(=O)(=O)Nc3cccc(Cl)c3)c2)cc1
42 | > 40 µM (inactive) | CCOc1ccc2c(c1)c(=O)c(C(=O)c1ccccc1)cn2CC(=O)Nc1ccccc1
43 | > 40 µM (inactive) | CC(=O)c1ccc(N2CCN(S(=O)(=O)c3cc4c(cc3C)NC(=O)CO4)CC2)cc1
44 | > 40 µM (inactive) | Cc1ccc(NC(=O)c2ccc3nn(CC(=O)Nc4ccc(C)cc4C)c(=O)n3c2)cc1
45 | > 40 µM (inactive) | O=C(NCc1ccc(F)cc1)c1cccc(Nc2nc3ccccc3n3cnnc23)c1
46 | > 40 µM (inactive) | COc1ccc(-c2cc3nc([C@H](C)NC(=O)CC4CCCC4)nn3cn2)cc1

Row | IC50 | SMILES
47 | > 40 µM (inactive) | O=C(Cn1cc(C(=O)c2ccc(F)cc2)c(=O)c2ccccc21)Nc1ccc2c(c1)OCO2
48 | > 40 µM (inactive) | Cc1ccc2[nH]c(=O)c(-c3nc4ccc(C)cn4c3NCc3ccc(F)cc3)cc2c1
49 | > 40 µM (inactive) | COc1ccc(Nc2nc3c(S(=O)(=O)c4ccc(C)cc4)nnn3c3ccsc23)c(OC)c1
50 | > 40 µM (inactive) | O=C(NCc1ccco1)c1ccc(Cn2c(SCc3ccccc3)nc3ccncc32)cc1
51 | > 40 µM (inactive) | Nc1c(C(=O)NCc2ccc3c(c2)OCO3)nnn1Cc1ccc(Br)cc1F
52 | > 40 µM (inactive) | O=C(Cn1c(=O)n(Cc2ccc3c(c2)OCO3)c(=O)c2ccccc21)NCc1ccco1
53 | > 40 µM (inactive) | O=C(Nc1cccc(C(F)(F)F)c1)c1cc2c(s1)-c1ccccc1OC2
54 | > 40 µM (inactive) | CCOc1ccc(-c2nc(SCC(=O)Nc3cccc(C)c3)n3[nH]c(=O)cc3n2)cc1
55 | > 40 µM (inactive) | Cc1cc(C(=O)Nc2cc([N+](=O)[O-])cc3oc(-c4ccccc4)cc23)on1
56 | > 40 µM (inactive) | COc1cc(NC(=O)Cn2nc(-c3ccc(F)cc3)ccc2=O)ccc1-n1cnnn1
57 | > 40 µM (inactive) | COc1ccc(C)cc1NC(=O)Nc1nnc(CC(=O)NCc2ccccc2)s1
58 | > 40 µM (inactive) | Cc1ccc(C(=O)c2cn(CC(=O)Nc3ccccc3)c3ccc(C)cc3c2=O)cc1
59 | > 40 µM (inactive) | O=C(c1ccc2cc[nH]c2c1)N1CCC(Nc2cccnc2)C1 (stereo not given)
60 | 2.3 µM | O=c1c2ccccc2oc2nc(-c3cccs3)n(-c3ccccc3)c(=O)c12
61 | 16.5 µM | CCc1noc(-c2ccn3c(CC(=O)Nc4ccccc4C)nnc3c2)n1
62 | > 40 µM (inactive) | Cc1sc(NC(=O)c2ccc(S(=O)(=O)N(C)Cc3ccccc3)cc2)c(C(N)=O)c1C
63 | 22 µM | O=C(/C=C/c1c(F)cccc1Cl)N1CCc2ccccc2C1
64 | 38.3 µM | O=C1Cc2ccccc2C(=O)N1c1ccc2c(c1)OCO2
65 | > 40 µM (inactive) | CCOc1ccc2c(c1)c(=O)c(C(=O)c1ccccc1)cn2CC(=O)Nc1ccc2c(c1)OCCO2
66 | > 40 µM (inactive) | CCOC(=O)c1cc2c(ccn2C)n1CC(=O)NC1CC1
67 | > 40 µM (inactive) | c1ccc(CNc2ccc(-c3ccccc3)nn2)cc1
68 | > 40 µM (inactive) | CCOc1ccc2[nH]c3c(=O)n(CCc4ccc(OC)cc4)cnc3c2c1
69 | > 40 µM (inactive) | COc1ccc(N(CC(=O)NC2CCCCC2)C(=O)c2ccc(-c3ccccc3)[nH]2)cc1OC

Row | IC50 | SMILES
70 | > 40 µM (inactive) | O=C(CNC(=O)c1ccc2nc(-n3cccc3)sc2c1)NCc1ccccc1
71 | > 40 µM (inactive) | CC(=O)O[C@@H](C/C=C(\C)C(=O)O)[C@@H](C)[C@H]1C[C@H](OC(C)=O)[C@@]2(C)C3=CC[C@H]4C(C)(C)[C@H](O)CC[C@]4(C)C3=CC[C@]12C
72 | > 40 µM (inactive) | O=C(Nc1ccc(NC(=O)c2ccccc2O)cc1)Nc1ccc(OCc2ccccc2)cc1
73 | > 40 µM (inactive) | CC(OC(=O)c1cc(S(=O)(=O)Nc2ccccc2F)ccc1Cl)C(=O)Nc1ccc([N+](=O)[O-])cc1C(F)(F)F (stereo not given)
74 | > 40 µM (inactive) | O=C(Cn1c(=O)n(CC2CCC(C(=O)NCCc3ccccc3)CC2)c(=O)c2ccccc21)NCc1ccco1 (stereo not given)
75 | 1.44 µM | CO/C=C/C(=O)c1cc2cnc3c(=N)cc(NC(C)=O)c([nH]1)c23
76 | > 40 µM (inactive) | O=S(=O)(Nc1ccc(Oc2ncnc3cc(Cl)ccc23)nc1)c1ccc(S(=O)(=O)c2ccccc2)s1
77 | 2.02 µM | CCOC(=O)C1CCN(C(=O)c2ccc3c(c2)NC(=O)C2CCCN32)CC1 (stereo not given)
78 | > 40 µM (inactive) | O=c1[nH]c(C2CCN(S(=O)(=O)c3ccc(S(=O)(=O)NC4CCCCC4)cc3)CC2)nc2c1nnn2Cc1ccc(F)cc1
79 | > 40 µM (inactive) | COc1cc(NS(=O)(=O)c2ccc(NC(=O)COc3ccc(C)cc3Br)cc2)nc(OC)n1
80 | 4.12 µM | O=C1Cc2ccccc2C(=O)N1Cc1cccc(Cl)c1
81 | 19.3 µM | COc1cccc(NC(=O)Cn2cc(C(=O)c3ccc(C)cc3)c(=O)c3cc(Cl)ccc32)c1
82 | > 40 µM (inactive) | Cc1ccc2c(c1)c1ncn(Cc3nc(C)no3)c(=O)c1n2CC(=O)NCc1ccccc1
83 | > 40 µM (inactive) | O=C(CCn1c(=O)c2sccc2n(Cc2ccc([N+](=O)[O-])cc2)c1=O)NCc1ccccc1
84 | > 40 µM (inactive) | Cc1cc(=O)[nH]c(NC2CCN(S(=O)(=O)c3ccccc3C(F)(F)F)CC2)n1
85 | > 40 µM (inactive) | Cc1nc(N2CCCC2)ncc1-c1cc(=O)[nH]c(Nc2ccc(Cl)cc2Cl)n1
86 | > 40 µM (inactive) | CNc1ccc(-c2noc([C@@H]3CCCN3Cc3cccc(C#N)c3)n2)cn1
87 | > 40 µM (inactive) | COc1ccc(-n2ccn3c(CCC(=O)Nc4cccc(C)c4)nnc3c2=O)cc1
88 | > 40 µM (inactive) | N#Cc1ccc(NC(=O)Nc2cccn(Cc3ccc(F)cc3)c2=O)cc1
89 | > 40 µM (inactive) | COc1ccc(NC(=O)Cn2c(C)cc(=O)n3nc(-c4cccc(C)c4)nc23)cc1
90 | > 40 µM (inactive) | O=C(COC(=O)c1cc2c(s1)CCC2)c1ccc2[nH]c(=O)[nH]c2c1
